Test results: patent publication US6806257B1, “Flavones as inducible nitric oxide synthase inhibitors, cyclooxygenase-2 inhibitors and potassium channel activators” (priority 1999, dated 2004)
Entries after “also recorded” stand apart in the source; their conditions may differ. Read-outs that look alike come from different tables or passages of the source.

Key:
[1] = tested on: porcine cerebral arteries; experiment: In vitro tissue bath vasorelaxation of precontracted porcine cerebral arteries; conditions: for relaxation of cerebral arteries: concentrations as high as 100 μM, n=4
[2] = tested on: NF-kB (p65) / IkB; experiment: Nuclear p65 / cytosolic IkB western blot in LPS-treated RAW264.7 macrophages; assay type: cell-based, mouse; conditions: 20 μg/ml, 100 ng/ml LPS for 30 minutes
Description: (§1) Western blots. Total cellular extract, cytosolic fractions (for IkB) and nuclear fraction (for p65 antibody) were prepared according to Muller et al., Immunobiology, 187, 233-256, 1993 and separated on sodium dodecyl sulfatepolyacrylamide minigels (8% for iNOS or COX-2, and 10% for IkB or p65) and transferred to immobilon polyvinylidene difluoride membranes (Millipore, Bedford, Mass.). The membrane was incubated overnight at 4° C. with 1% bovine serum albumin and then incubated with anti-iNos, COX-2, α-Tubulin monoclonal antibodies (Transduction Laboratories, Lexington, Ky.), anti-IkB or anti-p65 polyclonal antibodies (Santa Cruz Biochemicals, Santa Cruz, Calif.). iNOS, IkB, p65, Cox-2, α-Tubulin were detected by NBT and BCIP staining (Sigma Chemical Co., St. Louis, Mo.).
NF-kB is a transcription factor that is activated in response to stimulation by LPS, and activation of NF-kB is an essential factor in inducing iNOS gene expression in macrophages (Kim, Y. M., Biochem. Biophys. Res. Commun. 236, 655-660, 1997). To assess the effect of these compounds (20 μg/ml) on early stage of iNOS gene expression, the activation of NF-kB in RAW264.7 macrophages was examined using the electrophoretic mobility shift assay (EMSA) (FIGS. 6i and 6ii).

[3] = tested on: COX-2; experiment: COX-2 enzyme activity: PGE2 from added arachidonic acid in LPS-treated RAW 264.7 cells; assay type: cell-based, mouse; conditions: for PGE2: then arachidonic acid (100 μM) 15 min; for PGE2 production using added arachidonic acid as a substrate: added after COX-2 induction by LPS
[4] = tested on: LPS-induced NO production in RAW264.7 macrophages; experiment: LPS-induced nitrite (NO) production in RAW264.7 macrophages, Griess reaction; assay type: cell-based, mouse; conditions: for NO: 24 hours; for IC50: Mus musculus, RAW264.7, together with LPS (100 μg/mL) for 24 hours, n=3, read-out: IC50 in inhibiting LPS-induced NO production
Description: (§2) Cells. RAW264.7, a mouse macrophage cell line, was obtained from American Type Culture Collection. Cells were cultured in RPMI-1640 medium (available from Gibco Life Technology, in Gaithersburg, Md.) supplemented with 2 mM L-glutamine, antibiotics (100 units/ml penicillin-A and 100 units/ml streptomycin) and 10% heat-inactivated fetal bovine serum (Gibco/BRL) and maintained at 37° C in a humidified incubator containing 5% CO2.
Nitrite assay. The nitrite concentration in the medium was measured as an indicator of NO production according to the Griess reaction (Kim et al., J. Immunol. 153: 4741-4748). One hundred microliters of each supernatant was. mixed with the same volume of Griess reagent (1% sulfanilamide in 5% phosphoric acid and 0. 1% naphthylethylenediamine dihydrochloride in water); absorbency of the mixture at 550 nm was determined with an enzyme-linked immunosorbent assay plate reader (Dynatech MR-7000; Dynatech Labs, Chantilly, Va.).
The effects of flavonoids, ellagitannins, anthraquinones on LPS-induced NO production in macrophages were studied as follows. The chemical structures of two flavonoids (myricitrin, N1; oroxylin A, N2) four ellagitannins (penta-O-galloyl-β-glucopyranose, N3; woodfordin C, N4; onothein B, N5; cuphiin, N6), and two anthraquinones (emodin, N7; physcion, N8) that were used in the present study were shown in FIG. 1. The effects of these eight compounds on NO production in RAW264.7 macrophages were investigated. The accumulated nitrite in the culture medium was used as an index for NO synthesis from these cells. […]

[5] = tested on: iNOS; experiment: LPS-induced iNOS expression in RAW264.7 macrophages (western/northern blot); assay type: cell-based, mouse; conditions: for increased expression of iNOS in NLA or L-NAME plus LPS treated cells: NLA (or L-NAME) plus LPS co-treated
Description: as §2, §1
Northern blot analysis. Total RNA (20 μg/lane) were separated by electrophoresis on 1.2% agarose gel containing 6.7% formaldehyde and transformed to a Hybond-N nylon membrane (American Life Science) in 20×standard saline citrate (3 M sodium chloride and 0.3 M sodium citrate, pH 7.0). After heating at 80° C. for 2 hours and prehybridization for 4 hours, the filters were hybridized with ^32P-labeled murine iNOS cDNA probes at a concentration of 3×10^6 cpm/ml for 16-18 hours at 42° C. The probe was labeled with [α-32P] dCTP by using Random Primer labeling kit (Stratagene, La Jolla, Calif.). Then, the filters were washed, dried and autoradiographed with Kodak-X-Omat XAR-film using intensifying screens at −80° C.

[6] = tested on: iNOS; experiment: Indirect iNOS enzyme assay: NO in medium of LPS-pretreated intact RAW 264.7 cells; assay type: cell-based, mouse; conditions: for iNOS enzyme activity in intact cells by nitrite production in the medium: added to cells pre-treated with LPS
[7] = tested on: LPS-induced PGE2 production in RAW 264.7 macrophages; experiment: LPS-induced PGE2 production in RAW 264.7 macrophages (co-treatment); assay type: cell-based, mouse; conditions: for PGE2: 24 hours
Description: Un-stimulated RAW 264.7 macrophages in culture medium for 24 hours produced basal amount of PGE2 (1.5 ng/mL) in the medium.

[8] = tested on: COX-2; experiment: LPS-induced COX-2 expression in RAW264.7 macrophages (western/northern blot); assay type: cell-based, mouse; conditions: for LPS-induced COX-2 protein: 20, 40 μM with LPS (100 ng/mL) for 24 hours; for basal COX-2 expression, compound alone: no LPS
Description: as §2, §1

[9] = tested on: iNOS; experiment: Direct iNOS enzyme activity assay in RAW 264.7 cell lysates; assay type: biochemical, mouse; conditions: for NO production by direct enzyme activity assay, compound added to lysate (Table 3): lysates of LPS-treated cells
[10] = tested on: iNOS; experiment: LPS-induced nitrite production and iNOS expression in Bcl-2-overexpressed RAW264.7 cells; assay type: cell-based, mouse; conditions: 20 μg/ml, LPS 100 ng/ml, Bcl-2/RAW-1 and Bcl-2/RAW-2 cells
[11] = tested on: RAW264.7 cells; conditions: mouse, 20 μg/ml
[12] = 20 μM for 30 min after LPS 6 hours
[13] = LPS + L-NAME (2 mM) + compound 40 μM
[14] = LPS + NLA (2 mM) + compound 40 μM
[15] = different concentrations together with LPS for 24 hours
[16] = 20 μM added for 12 hours after LPS (100 ng/ml) 12 hours pretreatment
[17] = 40 μM added for 12 hours after LPS (100 ng/ml) 12 hours pretreatment
[18] = 20 μM added to lysate of LPS (100 ng/mL, 12 hr)-treated cells
[19] = 40 μM added to lysate of LPS (100 ng/mL, 12 hr)-treated cells
[20] = lysates of LPS-pretreated cells incubated with 20 μM for 12 hours
[21] = lysates of LPS-pretreated cells incubated with 40 μM for 12 hours
[22] = 40 μM for 30 min after LPS 6 hours
[23] = arteries without endothelial cells, U-46619

## C[C@@H]1C(=O)O[C@H]2C[C@@]34[C@H]5C[C@@H](C(C)(C)C)[C@]36[C@@H](OC(=O)[C@@H]6O)O[C@@]4(C(=O)O5)[C@]21O [ginkgolide A, reference compound]
[1]
  relaxation of cerebral arteries: very small relaxation or no response

## cuphiin D1
[2]
  LPS-induced increase of nuclear p65 and decrease of cytosolic IkB: did not block

## oenothein B
[2]
  LPS-induced increase of nuclear p65 and decrease of cytosolic IkB: significantly inhibited

## tetraethylammonium [TEA, reference compound]
[1]
  effect of the blocker on oroxylin A-induced relaxation: significantly shifted the oroxylin A concentration response curves to the right; also recorded: almost abolished
  effect of the blocker/inhibitor on oroxylin A-induced relaxation: concentration-dependently (1-10 mM) inhibited; also recorded: blocked

## COc1ccc2c(c1)c(CC(=O)O)c(C)n2C(=O)c1ccc(Cl)cc1 [indomethacin, reference compound]
[3]; [12]
  PGE2: 2.0 ± 0.7 ng/mL
[3]
  PGE2 production using added arachidonic acid as a substrate: significantly inhibited

## CC1C(=O)OC2C(O)C34C5CC(C(C)(C)C)C36C(OC(=O)C6O)OC4(C(=O)O5)C12O (stereo not shown) [ginkgolide B, reference compound]
[1]
  relaxation of cerebral arteries: very small relaxation or no response

## COc1c(O)cc(O)c2c(=O)cc(-c3ccccc3)oc12 [wogonin, 5,7-dihydroxy-8-methoxy flavone]
[4]; [13]
  NO: 6.8 ± 0.5 μmole/4 × 10^5
[4]; [14]
  NO: 6.7 ± 0.7 μmole/4 × 10^5
[4]; [15]
  LPS-induced nitrite production: significant concentration-dependent inhibition
[5]
  increased expression of iNOS in NLA or L-NAME plus LPS treated cells: inhibited
[6]; [16]
  NO in medium: 16.5 ± 0.3 μM/6 × 10^5 cells
[6]; [17]
  NO in medium: 16.3 ± 0.3 μM/6 × 10^5 cells
[7]; [13]
  PGE2: 2.3 ± 0.7 ng/mL
[7]; [14]
  PGE2: 2.1 ± 0.4 ng/mL
[7]; co-treatment 20 and 40 μM, LPS (100 ng/mL) 24 hours
  LPS-induced PGE2 production: inhibited

## O=c1cc(-c2ccccc2)oc2cc(O)c(O)c(O)c12 [baicalein]
[4]; [13]
  NO: 7.9 ± 1.2 μmole/4 × 10^5
[4]; [14]
  NO: 8.3 ± 1.3 μmole/4 × 10^5
[4]
  IC50: 19.4 ± 1 µM
[4]; [15]
  LPS-induced nitrite production: significant concentration-dependent inhibition
[5]
  increased expression of iNOS in NLA or L-NAME plus LPS treated cells: inhibited
[8]
  LPS-induced COX-2 protein: did not inhibit
  basal COX-2 expression, compound alone: did not affect
[6]; [16]
  NO in medium: 15.4 ± 0.3 μM/6 × 10^5 cells
[6]; [17]
  NO in medium: 13.1 ± 0.9 μM/6 × 10^5 cells
[6]
  iNOS enzyme activity in intact cells by nitrite production in the medium: did not affect
[9]
  direct effect on iNOS enzyme activity: did not directly affect
  NO production by direct enzyme activity assay, compound added to lysate (Table 3): did not inhibit
[9]; [18]
  iNOS specific activity: NO formation: 7.2 ± 0.1 μM/200 μg total protein
[9]; [19]
  iNOS specific activity: NO formation: 9.2 ± 1.8 μM/200 μg total protein
[9]; [20]
  iNOS specific activity: NO formation: 9.8 ± 2.3 μM/200 μg protein
[9]; [21]
  iNOS specific activity: NO formation: 8.1 ± 1.9 μM/200 μg protein
[3]
  direct effect on COX-2 enzyme activity: did not directly affect
  PGE2 production using added arachidonic acid as a substrate: no decrease
[3]; [12]
  PGE2: 6.1 ± 0.2 ng/mL
[3]; [22]
  PGE2: 6.2 ± 0.5 ng/mL
[7]; [13]
  PGE2: 6.2 ± 0.5 ng/mL
[7]; [14]
  PGE2: 5.5 ± 0.8 ng/mL

## Cc1cc(O)c2c(c1)C(=O)c1cc(O)cc(O)c1C2=O [emodin, Emodin, reference compound]
[4]; 5, 10 or 20 μg/ml together with 100 ng/ml LPS for 24 hours
  LPS-induced nitrite production: significant inhibition
[5]
  blocking LPS-induced iNOS gene expression, comparison among compounds tested: potent inhibitory effect, comparable to oroxylin A
[5]; 100 ng/ml LPS, western blot
  LPS-induced iNOS protein: inhibited LPS-induced iNOS protein in a concentration-dependent manner
[2]
  LPS-induced increase of nuclear p65 and decrease of cytosolic IkB: did not block
[10]
  LPS-induced iNOS gene expression: inhibited
  LPS-induced nitrite production: inhibited
[1]
  relaxation of cerebral arteries: very small relaxation or no response
[11]
  cytotoxity by MTT assay: ~30%

## Iberiotoxin (QFTDVDCSVSKECWSVCKDLFGVDRGKCMGKKCRCYQ; UniProt P24663 1-37, looked up) [reference compound]
[1]; [23]
  effect of the blocker/inhibitor on oroxylin A-induced relaxation: slightly but significantly inhibited

## Nc1ccncc1 [4-aminopyridine, reference compound]
[1]; [23]
  effect of the blocker/inhibitor on oroxylin A-induced relaxation: significantly inhibited

## O=C(O[C@@H]1Cc2c(O)cc(O)cc2O[C@@H]1c1cc(O)c(O)c(O)c1)c1cc(O)c(O)c(O)c1 [epigallocatechin gallate, reference compound]
[1]
  relaxation of cerebral arteries: very small relaxation or no response

## O=C(O)[C@H]1O[C@@H](Oc2cc3oc(-c4ccccc4)cc(=O)c3c(O)c2O)[C@H](O)[C@@H](O)[C@@H]1O [baicalin]
[4]; [13]
  NO: 8.5 ± 0.9 μmole/4 × 10^5
[4]; [14]
  NO: 7.1 ± 0.3 μmole/4 × 10^5
[4]
  IC50: 15 ± 1.4 µM
[4]; [15]
  LPS-induced nitrite production: significant concentration-dependent inhibition
[5]
  increased expression of iNOS in NLA or L-NAME plus LPS treated cells: inhibited
[8]
  LPS-induced COX-2 protein: did not inhibit
  basal COX-2 expression, compound alone: did not affect
[6]; [16]
  NO in medium: 14.5 ± 0.5 μM/6 × 10^5 cells
[6]; [17]
  NO in medium: 14.8 ± 1.5 μM/6 × 10^5 cells
[6]
  iNOS enzyme activity in intact cells by nitrite production in the medium: did not affect
[9]
  direct effect on iNOS enzyme activity: did not directly affect
  NO production by direct enzyme activity assay, compound added to lysate (Table 3): did not inhibit
[9]; [18]
  iNOS specific activity: NO formation: 8.7 ± 1.0 μM/200 μg total protein
[9]; [19]
  iNOS specific activity: NO formation: 9.0 ± 1.1 μM/200 μg total protein
[9]; [20]
  iNOS specific activity: NO formation: 8.7 ± 1.3 μM/200 μg protein
[9]; [21]
  iNOS specific activity: NO formation: 9.4 ± 2.1 μM/200 μg protein
[3]
  direct effect on COX-2 enzyme activity: did not directly affect
  PGE2 production using added arachidonic acid as a substrate: no decrease
[3]; [12]
  PGE2: 6.1 ± 0.6 ng/mL
[3]; [22]
  PGE2: 5.9 ± 0.4 ng/mL
[7]; [13]
  PGE2: 6.1 ± 0.3 ng/mL
[7]; [14]
  PGE2: 5.8 ± 1.1 ng/mL

## Cc1cnc(C(=O)NCCc2ccc(S(=O)(=O)NC(=O)NC3CCCCC3)cc2)cn1 [glipizide, reference compound]
[1]; [23]
  effect of the blocker/inhibitor on oroxylin A-induced relaxation: did not affect
